{
  "source": "patent US20080058373A1",
  "about": "“Compositions and Methods for Treating or Preventing Glaucoma or Progression Thereof” (priority 2006, published 2008)",
  "type_in_all_cases": "in vivo",
  "key": {"Leukocytes (PMN)": {"tested_on": "Leukocytes (PMN)", "experiment": "Leukocytes (PMN) measurement in aqueous humor, rabbit paracentesis model", "settings": "for PMN numbers in aqueous humor, Mean: second paracentesis, group mean", "procedure": "(§1) Each rabbit was placed in a restraint device and tagged with the alphanumeric code. The formulations were instilled (50 μl) into the conjunctival sac of both eyes 180, 120, 90 and 30 min before the first paracentesis; then 15, 30, 90 min after the first paracentesis. To perform the first paracentesis the animals were anaesthetized by intravenous injection of 5 mg/kg Zoletil® (Virbac; 2.5 mg/kg tiletamine HCl and 2.5 mg/kg zolazepam HCl) and one drop of local anesthetic (Novesina®, Novartis) was administered to the eye. Anterior chamber paracentesis was performed with a 26 G needle attached to a tuberculin syringe; the needle was introduced into the anterior chamber through the cornea, taking care not to damage the tissues. Two hours after the first paracentesis, the animals were sacrificed with 0.4 ml Tanax® (Intervet International B.V.) and the second paracentesis was performed. About 100 μl of aqueous humor were removed at the second paracentesis. Aqueous humor was immediately split in four aliquots and stored at −80° C. until analysis. Then both eyes were enucleated and the iris-ciliary body was carefully excised, placed in polypropylene tubes, and stored at −80° C. until analysis.\nFor the determination of the number of leukocytes we used a haemocytometer (Improved Neubauer Chamber; Bright-line, Hausser Scientific) and a Polyvar 2 microscope (Reichert-Jung)."}, "Prostaglandin E2 (PGE2)": {"tested_on": "Prostaglandin E2 (PGE2)", "experiment": "Prostaglandin E2 (PGE2) measurement in aqueous humor, rabbit paracentesis model", "settings": "second paracentesis, group mean", "procedure": "as §1\nFor the quantitative determination of PGE2 in the aqueous humor we used the PGE2 Immunoassay kit (R&D Systems; Cat.No. KGE004; Lot.No. 240010). Eleven microliters or 16 μl of aqueous humor were diluted to 110 μl or 160 μl with the calibrator diluent solution provided with the kit. One hundred microliters of samples and of standards were load into a 96-well plate and recorded in a plate layout. Samples were treated following the assay procedure described in the kit. A microplate reader (GDV, Italy; model DV 990 B/V6) set at 450 nm (wavelength correction at 540 nm) was used for making the calibration and analyzing the samples."}, "[1]": {"tested_on": "rabbit eye (anterior chamber paracentesis)", "experiment": "Pupillary diameter measurement, rabbit paracentesis model", "settings": "for Pupillary diameter T1: −180 min: 50 μl drops, −180 min (basal); for Pupillary diameter T1: −180 min / Pupillary diameter T2: −5 min / Pupillary diameter T3: +115 min: single eyes; for Pupillary diameter T2: −5 min: 5 min before the first paracentesis; for Pupillary diameter T3: +115 min: 5 min before the second paracentesis; for Pupillary diameter Mean Δ(T3 − T1): group mean, n=8 eyes", "procedure": "as §1\nThe pupillary diameter of both eyes was measured with a Castroviejo caliper 180 min and 5 min before the first paracentesis and 5 min before the second paracentesis."}, "Myeloperoxidase (MPO)": {"tested_on": "Myeloperoxidase (MPO)", "experiment": "Myeloperoxidase (MPO) activity in iris-ciliary body, rabbit paracentesis model", "settings": "for MPO activity in iris-ciliary body, Mean / MPO activity in iris-ciliary body: samples collected after the second paracentesis; for MPO activity in iris-ciliary body, Mean: group mean; for Δ/min (mean of the slope of the line recorded every 15 sec for 5 min) / MPO activity in iris-ciliary body: individual eyes", "procedure": "3.9 g of NaH2PO4 2H2O were dissolved in a volumetric flask to 500 ml with water. The pH was adjusted to pH=6 with 3N NaOH.\n0.5 g of hexa-decyl-trimethyl-ammonium bromide was dissolved in 100 ml phosphate buffer.\nThe solution was prepared freshly. Ten microliters of H2O2 (30 wt. %) were diluted to 1 ml with water (solution A). 7.5 mg o-dianisidine 2HCl was dissolved in 45 ml of phosphate buffer and 75 μl of solution A were added.\nas §1\nThe activity of MPO was measured as previously described by Williams et al.[5] The iris-ciliary bodies were carefully dried, weighed and immersed in 1 ml of hexa-decyl-trimethyl-ammonium bromide solution. Then, the samples were sonicated for 10 sec on ice by a ultrasound homogenizer (HD 2070, Bandelin electronic), freeze-thawed three times, sonicated for 10 sec and centrifuged at 14,000 g for 10 min to remove cellular debris. An aliquot of the supernatant (40-200 μl) was diluted to 3 ml with the o-dianisidine 2HCl/H2O2 solution. The change in absorbance at 460 nm was continuously monitored for 5 min by a spectrophotometer (UV/Vis Spectrometer Lambda EZ 201; Perkin Elmer). The slope of the line (Δ/min) was determined for each sample and used to calculate the number of units of MPO in the tissue as follows:\nValues were expressed as units of MPO/g of tissue."}, "protein in aqueous humor": {"tested_on": "protein in aqueous humor", "experiment": "Protein measurement in aqueous humor, rabbit paracentesis model", "settings": "for Protein levels in aqueous humor (raw data): samples collected at the second paracentesis, single eyes; for Protein levels in aqueous humor, Mean: second paracentesis, group mean", "procedure": "as §1\nFor protein concentration determination in the aqueous humor we used the Protein Quantification Kit (Fluka; Cat.No. 77371; Lot.No. 1303129). Five microliters of aqueous humor were diluted to 100 μl with water. Twenty microliters of samples and of standards were load into a 96-well plate and recorded in a plate layout. Samples were treated following the assay procedure described in the kit. A microplate reader (GDV, Italy; model DV 990 B/V6) set at 670 nm was used for making the calibration and analyzing the samples."}, "[2]": {"tested_on": "rabbit eye (anterior chamber paracentesis)", "experiment": "Clinical evaluation by slit lamp (clinical score), rabbit paracentesis model", "set-up": "key to Clinical Score −180 min / Clinical Score −5 min / Clinical Score +115 min: 0=normal; 1=discrete dilatation of iris and conjunctival vessels; 2=moderate dilatation of iris and conjunctival vessels; 3=intense iridal hyperemia with flare in the anterior chamber; 4=intense iridal hyperemia with flare in the anterior chamber and presence of fibrinous exudates", "settings": "for Clinical Score −5 min: 5 min before the first paracentesis; for Clinical Score −5 min / Clinical Score +115 min / Clinical Score −180 min: single eyes; for Clinical Score +115 min: 5 min before the second paracentesis"}, "[3]": {"settings": "0.5% topical, +115 min, N=8 eyes"}},
  "note": "Where “and” joins values, the source holds several entries; their conditions need not be identical. Identical values can stand only once.",
  "data": [
    {"compound": "CCOC(=O)O[C@]1(C(=O)OCCl)CC[C@H]2[C@@H]3CCC4=CC(=O)C=C[C@]4(C)[C@H]3[C@@H](O)C[C@@]21C", "note": "[loteprednol etabonate]", "values": [
      {"measurement": "PMN numbers in aqueous humor (raw data)", "setting": "Leukocytes (PMN); 0.5% topical, samples collected at the second paracentesis, single eyes, listed as LE", "result": "40 number/μl and 20 number/μl and 30 number/μl"},
      {"measurement": "PMN numbers in aqueous humor, Mean", "setting": "Leukocytes (PMN); 0.5% topical", "result": 28.333, "unit": "number/μl"},
      {"measurement": "Levels of PGE2 in aqueous humor, Mean", "setting": "Prostaglandin E2 (PGE2); 0.5% topical", "result": 0.672, "unit": "ng/mL"},
      {"measurement": "Pupillary diameter T1: −180 min", "setting": "[1]; 0.5% topical, listed as LE", "result": "6.0 mm and 6.5 mm"},
      {"measurement": "Pupillary diameter T2: −5 min", "setting": "[1]; 0.5% topical, listed as LE", "result": "6.0 mm and 6.5 mm"},
      {"measurement": "Pupillary diameter T3: +115 min", "setting": "[1]; 0.5% topical, listed as LE", "result": "4.5 mm and 5.0 mm and 5.5 mm and 6.0 mm"},
      {"measurement": "Pupillary diameter Mean Δ(T3 − T1)", "setting": "[1]; 0.5% topical", "result": "−0.9", "unit": "mm"},
      {"measurement": "MPO activity in iris-ciliary body, Mean", "setting": "Myeloperoxidase (MPO); 0.5% topical", "result": 0.661, "unit": "MPO Unit/g"},
      {"measurement": "Δ/min (mean of the slope of the line recorded every 15 sec for 5 min)", "setting": "Myeloperoxidase (MPO); 0.5% treatment, 200 μl supernatant aliquot diluted to 3 ml, listed as LE", "result": "0.026 and 0.053 and 0.067 and 0.055 and 0.076 and 0.096"},
      {"measurement": "MPO activity in iris-ciliary body", "setting": "Myeloperoxidase (MPO); 0.5% treatment, listed as LE", "result": "0.30 Unit/g and 0.51 Unit/g and 0.81 Unit/g and 0.60 Unit/g and 0.73 Unit/g and 1.01 Unit/g"},
      {"measurement": "Protein levels in aqueous humor (raw data)", "setting": "protein in aqueous humor; 0.5% topical, listed as LE", "result": "36.14 mg/mL and 39.10 mg/mL and 34.69 mg/mL and 26.10 mg/mL and 26.30 mg/mL and 28.16 mg/mL and 40.90 mg/mL and 39.85 mg/mL"},
      {"measurement": "Protein levels in aqueous humor, Mean", "setting": "protein in aqueous humor; 0.5% topical", "result": 33.905, "unit": "mg/mL"},
      {"measurement": "Clinical Score −5 min", "setting": "[2]; 0.5% topical", "result": 0},
      {"measurement": "Clinical Score +115 min", "setting": "[2]; 0.5% topical, listed as LE", "result": "2 and 1"},
      {"measurement": "Percentage of eyes with clinical score 1", "setting": "[2]; [3]", "result": 75, "unit": "%"},
      {"measurement": "Percentage of eyes with clinical score 2", "setting": "[2]; [3]", "result": 25, "unit": "%"},
      {"measurement": "Percentage of eyes with clinical score 0", "setting": "[2]; 0.5% topical, −5 min, N=8 eyes", "result": 100, "unit": "%"},
      {"measurement": "Percentage of eyes with clinical score 0", "setting": "[2]; 0.5% topical, −180 min (basal), N=8 eyes", "result": 100, "unit": "%"},
      {"measurement": "Clinical Score −180 min", "setting": "[2]; 0.5% topical, −180 min (basal)", "result": 0}
    ]},
    {"compound": "CC(C(=O)O)c1ccc(-c2ccccc2)c(F)c1", "note": "(stereo not drawn) [flurbiprofen]", "values": [
      {"measurement": "PMN numbers in aqueous humor, Mean", "setting": "Leukocytes (PMN); 0.03% topical", "result": 30.000, "unit": "number/μl"},
      {"measurement": "Levels of PGE2 in aqueous humor, Mean", "setting": "Prostaglandin E2 (PGE2); 0.03% topical", "result": 1.189, "unit": "ng/mL"},
      {"measurement": "Pupillary diameter T1: −180 min", "setting": "[1]; 0.03% topical, listed as F", "result": "5.0 mm and 7.0 mm and 6.0 mm and 5.5 mm"},
      {"measurement": "Pupillary diameter T2: −5 min", "setting": "[1]; 0.03% topical, listed as F", "result": "6.0 mm and 6.5 mm and 7.0 mm and 5.5 mm"},
      {"measurement": "Pupillary diameter T3: +115 min", "setting": "[1]; 0.03% topical, listed as F", "result": "4.0 mm and 3.5 mm and 5.5 mm and 5.0 mm and 4.5 mm and 6.0 mm"},
      {"measurement": "Pupillary diameter Mean Δ(T3 − T1)", "setting": "[1]; 0.03% topical", "result": "−0.9", "unit": "mm"},
      {"measurement": "MPO activity in iris-ciliary body, Mean", "setting": "Myeloperoxidase (MPO); 0.03% topical", "result": 0.906, "unit": "MPO Unit/g"},
      {"measurement": "Δ/min (mean of the slope of the line recorded every 15 sec for 5 min)", "setting": "Myeloperoxidase (MPO); 0.03% treatment, 100 μl supernatant aliquot diluted to 3 ml, listed as F", "result": "0.049 and 0.082 and 0.013 and 0.031 and 0.038 and 0.027 and 0.033 and 0.061"},
      {"measurement": "MPO activity in iris-ciliary body", "setting": "Myeloperoxidase (MPO); 0.03% treatment, listed as F", "result": "1.10 Unit/g and 1.70 Unit/g and 0.34 Unit/g and 0.75 Unit/g and 0.74 Unit/g and 0.63 Unit/g and 0.73 Unit/g and 1.27 Unit/g"},
      {"measurement": "Protein levels in aqueous humor (raw data)", "setting": "protein in aqueous humor; 0.03% topical, listed as F", "result": "20.78 mg/mL and 28.80 mg/mL and 23.41 mg/mL and 20.21 mg/mL and 17.53 mg/mL and 15.12 mg/mL and 20.52 mg/mL"},
      {"measurement": "Protein levels in aqueous humor, Mean", "setting": "protein in aqueous humor; 0.03% topical", "result": 20.910, "unit": "mg/mL"},
      {"measurement": "Clinical Score −5 min", "setting": "[2]; 0.03% topical", "result": 0},
      {"measurement": "Clinical Score +115 min", "setting": "[2]; 0.03% topical", "result": 2},
      {"measurement": "Percentage of eyes with clinical score 2", "setting": "[2]; 0.03% topical, +115 min, N=8 eyes", "result": 100, "unit": "%"},
      {"measurement": "Percentage of eyes with clinical score 0", "setting": "[2]; 0.03% topical, −5 min, N=8 eyes", "result": 100, "unit": "%"},
      {"measurement": "Percentage of eyes with clinical score 0", "setting": "[2]; 0.03% topical, −180 min (basal), N=8 eyes", "result": 100, "unit": "%"},
      {"measurement": "Clinical Score −180 min", "setting": "[2]; 0.03% topical, −180 min (basal)", "result": 0}
    ]}
  ]
}
